Results published in PubChem BioAssay (NCI).
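How tested: cells in 96-well plates exposed to compound for 48 hours at five concentrations. The concentration for 50% growth inhibition is given as GI50. TGI: total growth inhibition.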

How the values were obtained:
Test in all cases: DTP human tumour cell line panel, 48 h
[1] = test system: ACHN renal
[2] = test system: HCT-116 colon
[3] = test system: OVCAR-8 ovarian
[4] = test system: EKVX NSCLC
[5] = test system: PC-3 prostate
[6] = test system: UACC-257 melanoma
[7] = test system: SF-268 CNS
[8] = test system: RXF 393 renal
[9] = test system: HOP-92 NSCLC
[10] = test system: NCI-H460 lung

Structure (SMILES) | TGI [1] [µM] | TGI [2] [µM] | TGI [3] [µM] | TGI [4] [µM] | TGI [5] [µM] | TGI [6] [µM] | TGI [7] [µM] | TGI [8] [µM] | TGI [9] [µM] | TGI [10] [µM] | GI50 [1] [µM] | GI50 [2] [µM] | GI50 [3] [µM] | GI50 [4] [µM] | GI50 [5] [µM] | GI50 [6] [µM] | GI50 [7] [µM] | GI50 [8] [µM] | GI50 [9] [µM] | GI50 [10] [µM]
CCN1C[C@]2(C)CC[C@H](OC)C34C5C[C@@H]6[C@@H](OC)C[C@@](OC)(C5[C@H]6OCc5ccccc5)C(C13)[C@H](OC(C)=O)[C@@H]42 (stereo not given in full) | > 100 | > 100 | > 100 | > 100 | > 100 | > 100 | > 100 | > 100 | > 100 | > 100 |  |  |  |  |  |  |  |  |  | 
c1ccc(C2=C(c3ccccc3)Sc3nnc(CCCCCCCCc4nnc5n4NC(c4ccccc4)=C(c4ccccc4)S5)n3N2)cc1 | > 100 | > 100 | > 100 | > 100 | > 100 | > 100 | > 100 | > 100 | > 100 | > 100 |  |  |  |  |  |  |  |  |  | 
CN(CCNC(=S)c1cn(C)c2c1ccc1ccccc12)CCNC(=S)c1cn(C)c2c1ccc1ccccc12 | > 100 | > 100 | > 100 | > 100 | > 100 | > 100 | > 100 | 7.47 | > 100 | > 100 |  |  |  |  |  |  |  |  |  | 
C=C1C2CCC3(CCC4C5(C)CCCC4(C=[N+](CCO)C5)C3C2)C1O (stereo not given) | > 100 | > 100 | > 100 | > 100 | > 100 | > 100 | > 100 | > 100 | > 100 | > 100 |  |  |  |  |  |  |  |  |  | 
Cc1cccc(CNc2ncnc3[nH]ncc23)c1 | > 100 | > 100 | > 100 | > 100 | > 100 | > 100 | > 100 | > 100 | > 100 | > 100 |  |  |  |  |  |  |  |  |  | 
C=C[C@]1(O[Si](C)(C)C)C[C@@]2(C(=O)OCC)C(O)C(=O)N3CCc4cc(OC)c(OC)cc4[C@]312 (stereo not given in full) | > 100 | > 100 | > 100 | > 100 | > 100 | > 100 | > 100 | > 100 | > 100 | > 100 |  |  |  |  |  |  |  |  |  | 
O=C1c2ccccc2C(=O)c2c1cc1c(c2[N+](=O)[O-])OCO1 | 1.3 | 4.44 | 10.3 | 9.8 | 4.66 | 41.5 | 7.73 | 2.04 | 3.75 | 7.06 | 0.248 | 0.641 | 1.68 | 2.92 | 1.29 | 11.8 | 1.46 | 0.506 | 1.27 | 2.11
CC(=O)N(CC(=O)C(=O)NNc1ccoc1)c1ccc(Cl)cc1 | > 100 | > 100 | > 100 | > 100 | > 100 | > 100 | > 100 | > 100 | > 100 | > 100 |  |  |  |  |  |  |  |  |  | 
